Source: patent US20160209428A1, “DIAGNOSTIC AND PREDICTIVE METABOLITE PATTERNS FOR DISORDERS AFFECTING THE BRAIN AND NERVOUS SYSTEM” (THE REGENTS OF THE UNIVERSITY OF CALIFORNIA, priority 2013, published 2016)

System: Fragile X (Fmr1) knockout mouse
Experiment: Plasma metabolomics after weekly suramin or saline, Fragile X model
Type: in vivo
Details: for Suramin Treatment Effect (KO-Sur/KO-Sal): Fragile X KO
Procedure: Samples were analyzed on an AB SCIEX QTRAP 5500 triple quadrupole mass spectrometer equipped with a Turbo V electrospray ionization (ESI) source, Shimadzu LC-20A UHPLC system, and a PAL CTC autosampler (AB ACIEX, Framingham, Mass., USA). […] Plasma was separated by centrifugation at 600 g×5 minutes at 20° C. within one hour of collection. Fresh lithium-heparin plasma was transferred to labeled tubes for storage at −80° C. for analysis. Typically 45 μl of plasma was thawed on ice and transferred to a 1.7 ml Eppendorf tube. Two and one-half (2.5) μl of a cocktail containing 35 commercial stable isotope internal standards, and 2.5 μl of 310 stable isotope internal standards that were custom-synthesized in E. coli and S. cerevisiae by metabolic labeling with ^13C-glucose and ^13C-bicarbonate, were added, mixed, and incubated for 10 min at room temperature to permit small molecules and vitamins in the internal standards to associate with plasma binding proteins. Macromolecules (protein, DNA, RNA, etc.) were precipitated by extraction with 4 volumes (200 μl) of cold (−20° C.), acetonitrile:methanol (50:50) (LCMS grade, Cat#LC015-2.5 and GC230-4, Burdick & Jackson, Honeywell), vortexed vigorously, and incubated on crushed ice for 10 min, then removed by centrifugation at 16,000 g×10 min at 4° C. The supernatants containing the extracted metabolites and internal standards in the resulting 40:40:20 solvent mix of acetonitrile:methanol:water were transferred to labeled cryotubes and stored at −80° C. for LC-MS/MS (liquid chromatography-tandem mass spectrometry) analysis.
LC-MS/MS analysis was performed by multiple reaction monitoring (MRM) under Analyst v1.6.1 (AB SCIEX, Framingham, Mass., USA) software control in both negative and positive mode with rapid polarity switching (50 ms). Nitrogen was used for curtain gas (set to 30), collision gas (set to high), ion source gas 1 and 2 (set to 35). The source temperature was 500° C. Spray voltage was set to −4500 V in negative mode and 5500 V in positive mode. The values for Q1 and Q3 mass-to-charge ratios (m/z), declustering potential (DP), entrance potential (EP), collision energy (CE), and collision cell exit potential (CXP) were determined and optimized for each MRM for each metabolite. Ten microliters of extract was injected by PAL CTC autosampler into a 250 mm×2 mm, 5 μm Luna NH2 aminopropyl HPLC column (Phenomenex, Torrance, Calif., USA) held at 25° C. for chromatographic separation. […] The flow rate was 300 μl/min. All the samples were kept at 4° C. during analysis. The chromatographic peaks were identified using MultiQuant (v3.0, AB SCIEX), confirmed by manual inspection, and the peak areas integrated. The median of the peak area of stable isotope internal standards was calculated and used for the normalization of metabolites concentration across the samples and batches. Prior to multivariate and univariate analysis, the data were log-transformed.
A rendering of mammalian intermediary metabolism was constructed in Cytoscape v 3.1.1 (see, e.g., [http://]www.cytoscape.org/). […] Nodes in the Cytoscape network represent metabolites within the pathways and have been colored according to the Z-score. The Z-score was computed as the arithmetic difference between the mean concentration of each metabolite in the KO-Sur treatment group and the KO-Sal control group, divided by the standard deviation in the controls. Node colors were arranged on a red-green color scale with green representing −2.00 Z-score, red representing +2.00 Z-score, and with a zero (0) Z-score represented as white.
Group means and standard error of the means (SEM) are reported. Behavioral data were analyzed by two-way ANOVA and one-way ANOVAs (GraphPad Prism 5.0d, GraphPad Software Inc., La Jolla, Calif., USA, or Stata/SE v12.1, StataCorp, College Station, Tex., USA). Pair-wise post hoc testing was performed by the method of Tukey or Newman-Keuls. Significance was set at p<0.05.

Cc1ccc(C(=O)Nc2ccc(S(=O)(=O)O)c3cc(S(=O)(=O)O)cc(S(=O)(=O)O)c23)cc1NC(=O)c1cccc(NC(=O)Nc2cccc(C(=O)Nc3cc(C(=O)Nc4ccc(S(=O)(=O)O)c5cc(S(=O)(=O)O)cc(S(=O)(=O)O)c45)ccc3C)c2)c1 [Suramin, suramin]
Suramin Treatment Effect (KO-Sur/KO-Sal) (Bile Salt Metabolism, plasma): Increased
Suramin Treatment Effect (KO-Sur/KO-Sal) (Branch Chain Amino Acid Metabolism, plasma): Increased
Suramin Treatment Effect (KO-Sur/KO-Sal) (Cardiolipin Metabolism, plasma): Decreased
Suramin Treatment Effect (KO-Sur/KO-Sal) (Cholesterol, Cortisol, Non-Gonadal Steroid Metabolism, plasma): 2/2 Increased
Suramin Treatment Effect (KO-Sur/KO-Sal) (Eicosanoid and Resolvin Metabolism, plasma): 4/6 Increased
Suramin Treatment Effect (KO-Sur/KO-Sal) (Fatty Acid Oxidation and Synthesis, plasma): 9/9 Decreased
Suramin Treatment Effect (KO-Sur/KO-Sal) (Ganglioside Metabolism, plasma): 6/6 Increased
Suramin Treatment Effect (KO-Sur/KO-Sal) (Glycolysis and Gluconeogenesis, plasma): 2/2 Decreased
Suramin Treatment Effect (KO-Sur/KO-Sal) (Isoleucine, Valine, Threonine, or Methionine Metabolism, plasma): Increased
Suramin Treatment Effect (KO-Sur/KO-Sal) (Krebs Cycle, plasma): Increased
Suramin Treatment Effect (KO-Sur/KO-Sal) (Microbiome Metabolism, plasma): 2/3 Decreased
Suramin Treatment Effect (KO-Sur/KO-Sal) (Nitric Oxide, Superoxide, Peroxide Metabolism, plasma): Increased
Suramin Treatment Effect (KO-Sur/KO-Sal) (Pentose Phosphate, Gluconate Metabolism, plasma): Increased
Suramin Treatment Effect (KO-Sur/KO-Sal) (Phospholipid Metabolism, plasma): 6/6 Increased
Suramin Treatment Effect (KO-Sur/KO-Sal) (Purine Metabolism, plasma metabolites with VIP >=1.5, weekly suramin vs saline): 4/5 Decreased
Suramin Treatment Effect (KO-Sur/KO-Sal) (Pyrimidine Metabolism, plasma): Decreased
Suramin Treatment Effect (KO-Sur/KO-Sal) (SAM, SAH, Methionine, Cysteine, Glutathione Metabolism, plasma): 3/3 Increased
Suramin Treatment Effect (KO-Sur/KO-Sal) (Sphingolipid Metabolism, plasma): 3/5 Decreased
Suramin Treatment Effect (KO-Sur/KO-Sal) (Vitamin B3 (Niacin, NAD+) Metabolism, plasma): 1/2 Increased
Suramin Treatment Effect (KO-Sur/KO-Sal) (Vitamin B6 (Pyridoxine) Metabolism, plasma): Increased
Suramin Treatment Effect (KO-Sur/KO-Sal) (all 20 of 60 Pathways Dysregulated, top 58 metabolites, plasma): 33/58 Increased
acyl-carnitine species with generalized decrease (plasma, Fmr1 KO mice, suramin treatment): 9 of 9
biochemical pathways with pharmacometabolomic changes (plasma, Fmr1 KO mice, weekly suramin): 20 of 60
